The values that follow come from patent publication US20220380801A1, “TRIPARTITE SYSTEMS FOR PROTEIN DIMERIZATION AND METHODS OF USE” (priority 2019, published 2022).

Where two headings read alike, the source gives them in different places.

Experiment [1] deals with HCV NS3/4A PR (S139A)/PRSIM_23 (Hepatitis C virus subtype 1a, UniProt A8DG50, A1066T/I1043Q/I1044E/L1039E/L1040E/L1047Q/S1165A, form not given). Kind of experiment: Biacore 8K simeprevir titration of heterodimerisation. Format: binding. To be noted: read-out: EC50 of simeprevir for induction of heterodimerisation, 40 nM ‘WT’ (S139A) protease, immobilised PRSIM_23. As for the experimental part: (§1) The effect of simeprevir concentration on the formation of the HCV NS3/4A PR (S139A)/PRSIM binding molecule complex was also measured using the Biacore 8K. PRSIM_57 and PRSIM_23 were covalently immobilised on a CM5 chip surface, as before. Simeprevir was diluted 1:2 (0.0152-300 nM) in 10 mM Hepes pH 7.4, 150 mM NaCl, 0.05% Surfactant P20, 0.3% DMSO at a constant 40 nM HCV NS3/4A PR (S139A) concentration. The samples were flowed over the chip at 50 μl/min using multi cycle kinetics, with 240 sec association and 600 sec dissociation. Regeneration conditions were as described above. Titration curves for the induction of HCV NS3/4A PR (S139A)/PRSIM dimerization by simeprevir were generated. The response for each simeprevir concentration at 225 sec (15 sec before the end of the association) was normalized as a percentage of the response for 300 nM Simeprevir at 225 sec and plotted against the Simeprevir concentration. Each data point represents the mean of 3 independent experiments±s.e.m. The EC50 reported was calculated using nonlinear regression curve fit. The same method was used for the mutant HCV NS3/4A proteases, except simeprevir was diluted 1:2 (0.0457-900 or 0.412-8,100 nM) in 10 mM Hepes pH 7.4, 150 mM NaCl, 0.05% Surfactant P20, 0.82% DMSO at a constant 40 nM HCV NS3/4A PR (S139A) concentration and the response for each simeprevir concentration was normalized against the highest simeprevir concentration.
On the technique in general: SPR reads the build-up and loss of mass on a sensor chip optically.

In experiment [2] the target is HCV NS3/4A PR (S139A)/PRSIM_57 (Hepatitis C virus subtype 1a, UniProt A8DG50, A1066T/I1043Q/I1044E/L1039E/L1040E/L1047Q/S1165A, form not given). The experiment is described as above. Format: binding. The settings on record: read-out: EC50 of simeprevir for induction of heterodimerisation; 40 nM HCV NS3/4A PR (S139A), immobilised PRSIM_57. As for the experimental part: as §1

Experiment [3] addresses HCV NS3/4A PR D168E/PRSIM_23 (Hepatitis C virus subtype 1a, UniProt A8DG50, D1194E/S1165A, form not given). The experiment is described as above. Format: binding. To be noted: read-out: EC50 of simeprevir for induction of heterodimerisation; D168E protease, immobilised PRSIM_23. Here is the method:
as §1

The target of experiment [4] is HCV NS3/4A PR K136D/PRSIM_23 (Hepatitis C virus subtype 1a, UniProt A8DG50, K1162D/S1165A, form not given). Described as above. It counts as binding. As for the experimental part:
as §1

Experiment [5] addresses HCV NS3/4A PR K136N/PRSIM_23 (Hepatitis C virus subtype 1a, UniProt A8DG50, A1066T/I1043Q/I1044E/K1162N/L1039E/L1040E/L1047Q/S1165A, form not given). Described as above. The settings on record: read-out: EC50 of simeprevir for induction of heterodimerisation; K136N protease, immobilised PRSIM_23. It counts as binding. As for the experimental part:
as §1

For experiment [6], the system named is MED18852 expression. Kind of experiment: Transcriptional regulation assay, antibody (MED18852) expression. To be noted: DBD-PRSIM_23 (three tandem copies); 48 hours after simeprevir. It counts as cell-based, human. An excerpt: The DNA sequence encoding MED18852 (SEQ ID NO: 237 and SEQ ID NO: 238, separated by an internal ribosome entry site (IRES) sequence) was purchased as a as a DNA string from GeneArt and cloned into the pZFHD1-2 vector (Takara) downstream of the ZFHD1 inducible promoter using Gibson assembly cloning. The nucleotide sequence of the final construct was confirmed by sequencing.
For the quantification of antibody expression (MED18852) utilising the transcriptional regulation assay, the cells were co-transfected with a pHet-Act1-2 plasmid (containing the HCV NS3/4A PR (S139A):PRSIM_23) and a pZFHD1 plasmid (encoding MED18852); 24 hours later wells were treated with different concentrations of simeprevir. Antibody concentration was determined in the supernatants 48 hours post the addition of simeprevir using MSD kit (Singleplex Human/NHP IgG Isotyping Kit (Mesoscale).

Experiment [7] concerns hESC line Sa121. Kind of experiment: PRSIM-based kill switch activity in ESC cells (confluency). Format: cell-based, human. As for the experimental part:
The hESC line Sa121 (TakaraBio Europe) was also transduced with the lentiviral particles encoding the PRSIM-based kill switch fusion protein described above (SEQ ID 223). Cells (passage 19) were plated at 3.5×10^5 cells/cm^2 in the DEF-CS culture system, and the cells were transduced 30 h later. 24 h after transduction, puromycin selection was initiated and the antibiotic selection was maintained until a stable cell pool was achieved.
To test the induction of the kill switch in Sa121 ES cells, the cells were plated at 3.5×10^5/cm^2 two days before inducing kill switch activity by treating with simeprevir at concentrations from 10 nm to 1 uM. The cells were imaged using the Incucyte S3 (EssenBioscience) at intervals ranging from 10-20 min; kill switch efficiency was quantified by image analysis of confluency.

A word on the EC50: it is the midpoint of the concentration-response curve. Regarding `COc1ccc2c(O[C@@H]3C[C@H]4C(=O)N[C@]5(C(=O)NS(=O)(=O)C6CC6)C[C@H]5/C=C\CCCCN(C)C(=O)[C@@H]4C3)cc(-c3nc(C(C)C)cs3)nc2c1C` [simeprevir], the EC50 in experiment [1] was found to be 4.53 nM; in experiment [1] (listed as Simeprevir), 4.03 nM; in experiment [2], 4.57 nM; in experiment [3], 3.69 nM; in experiment [4] (read-out: EC50 of simeprevir for induction of heterodimerisation, K136D protease, immobilised PRSIM_23), 132 nM; in experiment [5] it was 8.06 nM. Also, the “EC50 higher than for the wt complex” value in experiment [4] (K136D versus wt complex) was around 30 fold. For the same compound, the “expression of MED18852” value in experiment [6] is on record as “dependent on the dose of simeprevir”. Also, the cell killing result in experiment [7] (10 nM simeprevir, 4 hours timeframe) is “maximal cell killing was not reached”; in experiment [7] (100 nM simeprevir, within 4 hours) it was around 90%. Moreover, the “onset of cell killing” value in experiment [7] (1 μM simeprevir) is around 15 min. In addition, in experiment [7] (1 μM simeprevir, within 4 hours, kill switch-transduced Sa121), the “cells eliminated (cell confluency)” value is reported as “up to 95%”. For the same compound, in experiment [7] (wt (non-transduced) Sa121 cells), the response to simeprevir result was “did not respond to treatment with simeprevir”.
